Columns and labels:
JAK2 = molecular target: T1, JAK2 (Homo sapiens, UniProt O60674); assay: Recombinant Human JAK2 Kinase Assay (TRF); format: biochemical; conditions: JAK2 kinase inhibition, 0.2 μM ATP; read-out: JAK2 Potency
T1 construct: host or cells: baculovirus expression system
How it was run: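 Baculovirus-expressed JAK2 (15 ng/ml) phosphorylated a biotinylated 15-mer peptide captured on Neutravidin, in 20 mM HEPES pH 7.2, 0.2 μM ATP, 1 mM MnCl2, 0.1% BSA, 2.5% DMSO final, 20 min at room temperature. Phosphoproduct detected by time-resolved fluorescence with Eu-N1-labelled PY100 antibody.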

ALK = molecular target: T2, ALK (Homo sapiens, UniProt Q9UM73); assay: ALK Kinase Assay (ELISA/TRF, PLC-γ substrate); format: biochemical; conditions: ALK kinase inhibition, 1 μM ATP; read-out: ALK Potency
T2 construct: host or cells: baculovirus expression system
T2 sequence (Q9UM73 19-1620): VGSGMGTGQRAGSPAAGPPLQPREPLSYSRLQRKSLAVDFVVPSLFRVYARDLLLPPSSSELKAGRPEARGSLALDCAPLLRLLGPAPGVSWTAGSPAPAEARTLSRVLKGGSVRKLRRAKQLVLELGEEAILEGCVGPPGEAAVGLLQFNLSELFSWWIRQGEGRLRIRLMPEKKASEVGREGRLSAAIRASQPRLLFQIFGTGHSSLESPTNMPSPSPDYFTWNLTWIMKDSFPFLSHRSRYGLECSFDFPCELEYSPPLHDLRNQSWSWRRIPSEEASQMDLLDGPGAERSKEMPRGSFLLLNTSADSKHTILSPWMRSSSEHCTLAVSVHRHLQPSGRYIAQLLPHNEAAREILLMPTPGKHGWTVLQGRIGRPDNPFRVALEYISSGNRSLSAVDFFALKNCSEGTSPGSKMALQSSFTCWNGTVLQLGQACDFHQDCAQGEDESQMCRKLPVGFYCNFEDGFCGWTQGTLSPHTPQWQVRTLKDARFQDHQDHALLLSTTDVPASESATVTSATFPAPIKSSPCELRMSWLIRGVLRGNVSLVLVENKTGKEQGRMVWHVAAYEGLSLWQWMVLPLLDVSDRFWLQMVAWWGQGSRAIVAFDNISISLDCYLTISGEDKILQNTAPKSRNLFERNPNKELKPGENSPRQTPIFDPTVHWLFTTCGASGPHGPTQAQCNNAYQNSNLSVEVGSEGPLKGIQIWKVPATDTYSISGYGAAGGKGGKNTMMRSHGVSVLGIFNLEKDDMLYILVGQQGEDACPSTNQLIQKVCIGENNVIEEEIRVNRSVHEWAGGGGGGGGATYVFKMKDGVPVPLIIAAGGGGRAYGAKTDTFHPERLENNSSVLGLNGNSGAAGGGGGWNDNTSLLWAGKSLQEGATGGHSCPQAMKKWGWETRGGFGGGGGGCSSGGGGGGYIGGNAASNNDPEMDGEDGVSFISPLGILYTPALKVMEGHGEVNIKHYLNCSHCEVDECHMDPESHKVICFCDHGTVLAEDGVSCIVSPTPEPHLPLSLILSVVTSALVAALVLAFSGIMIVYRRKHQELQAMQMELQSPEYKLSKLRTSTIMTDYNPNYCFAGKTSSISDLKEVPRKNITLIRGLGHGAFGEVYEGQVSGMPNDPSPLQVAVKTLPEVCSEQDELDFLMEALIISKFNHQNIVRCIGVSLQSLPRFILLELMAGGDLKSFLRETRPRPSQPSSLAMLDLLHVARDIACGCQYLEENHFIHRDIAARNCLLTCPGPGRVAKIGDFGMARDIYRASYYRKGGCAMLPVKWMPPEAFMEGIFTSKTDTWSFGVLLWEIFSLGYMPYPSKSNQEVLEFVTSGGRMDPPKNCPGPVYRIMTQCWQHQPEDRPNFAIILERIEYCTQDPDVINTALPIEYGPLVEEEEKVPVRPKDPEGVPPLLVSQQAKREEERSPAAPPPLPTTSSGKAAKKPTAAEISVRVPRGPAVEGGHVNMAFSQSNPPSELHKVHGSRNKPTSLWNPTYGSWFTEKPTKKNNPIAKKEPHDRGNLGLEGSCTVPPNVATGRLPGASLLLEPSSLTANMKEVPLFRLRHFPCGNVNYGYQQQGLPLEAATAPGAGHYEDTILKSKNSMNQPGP
How it was run: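 PLC-γ substrate coated at 10 μg/mL in TBS; reaction started with 30 ng/ml ALK, run 15 min at 37° C. Phosphoproduct detected by TRF with Eu-N1-labeled PT66 anti-phosphotyrosine antibody. IC50 from sigmoidal variable-slope fit of percent inhibition versus log concentration.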

T1 sequence (O60674 whole entry): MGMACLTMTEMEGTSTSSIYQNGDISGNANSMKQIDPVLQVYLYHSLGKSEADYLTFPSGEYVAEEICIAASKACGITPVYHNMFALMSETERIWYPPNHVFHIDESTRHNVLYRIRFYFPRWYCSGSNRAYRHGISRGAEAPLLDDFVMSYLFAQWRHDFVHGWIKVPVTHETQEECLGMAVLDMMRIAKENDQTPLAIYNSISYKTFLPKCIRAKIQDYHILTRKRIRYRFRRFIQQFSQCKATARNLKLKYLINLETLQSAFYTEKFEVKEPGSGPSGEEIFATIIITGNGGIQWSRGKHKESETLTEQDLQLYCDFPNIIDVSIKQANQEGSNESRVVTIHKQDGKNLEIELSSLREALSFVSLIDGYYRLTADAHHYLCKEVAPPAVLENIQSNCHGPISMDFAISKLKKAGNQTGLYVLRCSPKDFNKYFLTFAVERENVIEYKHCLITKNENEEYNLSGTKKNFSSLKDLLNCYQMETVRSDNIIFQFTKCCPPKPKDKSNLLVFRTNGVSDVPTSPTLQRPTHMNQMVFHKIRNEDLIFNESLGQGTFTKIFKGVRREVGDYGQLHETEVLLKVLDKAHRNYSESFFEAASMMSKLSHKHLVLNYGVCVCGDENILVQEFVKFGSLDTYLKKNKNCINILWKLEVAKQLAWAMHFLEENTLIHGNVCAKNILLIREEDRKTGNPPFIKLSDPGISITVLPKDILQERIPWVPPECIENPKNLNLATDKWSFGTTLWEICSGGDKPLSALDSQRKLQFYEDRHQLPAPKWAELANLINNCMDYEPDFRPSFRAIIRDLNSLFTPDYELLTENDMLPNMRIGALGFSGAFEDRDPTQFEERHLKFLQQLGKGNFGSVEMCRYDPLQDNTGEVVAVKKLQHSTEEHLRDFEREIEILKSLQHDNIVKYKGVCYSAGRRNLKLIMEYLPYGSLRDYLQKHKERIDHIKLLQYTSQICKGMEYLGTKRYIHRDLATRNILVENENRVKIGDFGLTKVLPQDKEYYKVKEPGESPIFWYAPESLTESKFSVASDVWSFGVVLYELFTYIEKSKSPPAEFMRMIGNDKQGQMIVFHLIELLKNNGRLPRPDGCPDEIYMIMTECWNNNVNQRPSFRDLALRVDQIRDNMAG

Row | Compound | IC50 (JAK2) | IC50 (ALK)
1 | O=S(=O)(c1cccc(-c2ccc3cnc(Nc4ccc5nc(CO)[nH]c5c4)nn23)c1)N1CCCC1 [Example 1070, (6-{7-[3-(Pyrrolidine-1-sulfonyl)-phenyl]-pyrrolo[2,1-f][1,2,4]triazin-2-ylamino}-1H-benzoimidazol-2-yl)-methanol] | < 100 nM | 1000 to 10000 nM
2 | CN(c1ccccc1-c1ccc2cnc(Nc3ccc4nc(CO)[nH]c4c3)nn12)S(C)(=O)=O [Example 1071, N-{2-[2-(2-Hydroxymethyl-3H-benzoimidazol-5-ylamino)-pyrrolo[2,1-f][1,2,4]triazin-7-yl]-phenyl}-N-methyl-methanesulfonamide] | < 100 nM | 100 to 1000 nM
3 | COc1ccc(-c2ccc3cnc(Nc4ccc(C5C(=O)N(C)CCN5C)cc4)nn23)cn1 (stereo not drawn) [Example 1072, 3-{4-[7-(6-Methoxy-pyridin-3-yl)-pyrrolo[2,1-f][1,2,4]triazin-2-ylamino]-phenyl}-1,4-dimethyl-piperazin-2-one] | < 100 nM | 1000 to 10000 nM
4 | CN1CCN(C)C(c2ccc(Nc3ncc4ccc(-c5ccccc5N(C)S(C)(=O)=O)n4n3)cc2)C1=O (stereo not drawn) [Example 1073, N-(2-{2-[4-(1,4-Dimethyl-3-oxo-piperazin-2-yl)-phenylamino]-pyrrolo[2,1-f][1,2,4]triazin-7-yl}-phenyl)-N-methyl-methanesulfonamide] | < 100 nM | 100 to 1000 nM
5 | CN1CCN(C)C(c2ccc(Nc3ncc4ccc(-c5cccc(S(=O)(=O)NC(C)(C)C)c5)n4n3)cc2)C1=O (stereo not drawn) [Example 1074, N-tert-Butyl-3-{2-[4-(1,4-dimethyl-3-oxo-piperazin-2-yl)-phenylamino]-pyrrolo[2,1-f][1,2,4]triazin-7-yl}-benzene sulfonamide] | < 100 nM | 1000 to 10000 nM
6 | CN1CCN(C)C(c2ccc(Nc3ncc4ccc(-c5cccc(S(=O)(=O)N6CCOCC6)c5)n4n3)cc2)C1=O (stereo not drawn) [Example 1075, 1,4-Dimethyl-3-(4-{7-[3-(morpholine-4-sulfonyl)-phenyl]-pyrrolo[2,1-f][1,2,4]triazin-2-ylamino}-phenyl)-piperazin-2-one] | < 100 nM | > 10000 nM
7 | COc1ccccc1-c1ccc2cnc(Nc3ccc(C4C(=O)N(C)CCN4C)cc3)nn12 (stereo not drawn) [Example 1076, 3-{4-[7-(2-Methoxy-phenyl)-pyrrolo[2,1-f][1,2,4]triazin-2-ylamino]-phenyl}-1,4-dimethyl-piperazin-2-one] | < 100 nM | 1000 to 10000 nM
8 | CN1CCN(C)C(c2cccc(Nc3ncc4ccc(-c5cccc(S(=O)(=O)NC(C)(C)C)c5)n4n3)c2)C1=O (stereo not drawn) [Example 1077, N-tert-Butyl-3-{2-[3-(1,4-dimethyl-3-oxo-piperazin-2-yl)-phenylamino]-pyrrolo[2,1-f][1,2,4]triazin-7-yl}-benzenesulfonamide] | < 100 nM | 1000 to 10000 nM
9 | CN1CCN(C)C(c2cccc(Nc3ncc4ccc(-c5cccc(S(=O)(=O)N6CCOCC6)c5)n4n3)c2)C1=O (stereo not drawn) [Example 1078, 1,4-Dimethyl-3-(3-{7-[3-(morpholine-4-sulfonyl)-phenyl]-pyrrolo[2,1-f][1,2,4]triazin-2-ylamino}-phenyl)-piperazin-2-one] | < 100 nM | > 10000 nM
10 | CN1CCN(C)C(c2cccc(Nc3ncc4ccc(-c5cccc(S(=O)(=O)N6CCCC6)c5)n4n3)c2)C1=O (stereo not drawn) [Example 1079, 1,4-Dimethyl-3-(3-{7-[3-(pyrrolidine-1-sulfonyl)-phenyl]-pyrrolo[2,1-f][1,2,4]triazin-2-ylamino}-phenyl)-piperazin-2-one] | < 100 nM | 1000 to 10000 nM
11 | CN1CCN(C)C(c2cccc(Nc3ncc4ccc(-c5cccc(S(C)(=O)=O)c5)n4n3)c2)C1=O (stereo not drawn) [Example 1080, 3-{3-[7-(3-Methanesulfonyl-phenyl)-pyrrolo[2,1-f][1,2,4]triazin-2-ylamino]-phenyl}-1,4-dimethyl-piperazin-2-one] | < 100 nM | 1000 to 10000 nM
12 | COc1ccc(-c2ccc3cnc(Nc4cccc(C5C(=O)N(C)CCN5C)c4)nn23)cn1 (stereo not drawn) [Example 1081, 3-{3-[7-(6-Methoxy-pyridin-3-yl)-pyrrolo[2,1-f][1,2,4]triazin-2-ylamino]-phenyl}-1,4-dimethyl-piperazin-2-one] | < 100 nM | > 10000 nM
13 | COc1ccccc1-c1ccc2cnc(Nc3cccc(C4C(=O)N(C)CCN4C)c3)nn12 (stereo not drawn) [Example 1082, 3-{3-[7-(2-Methoxy-phenyl)-pyrrolo[2,1-f][1,2,4]triazin-2-ylamino]-phenyl}-1,4-dimethyl-piperazin-2-one] | < 100 nM | 1000 to 10000 nM
14 | CN1CCN(C)C(c2cccc(Nc3ncc4ccc(-c5ccccc5N(C)S(C)(=O)=O)n4n3)c2)C1=O (stereo not drawn) [Example 1083, N-(2-{2-[3-(1,4-Dimethyl-3-oxo-piperazin-2-yl)-phenylamino]-pyrrolo[2,1-f][1,2,4]triazin-7-yl}-phenyl)-N-methyl-methanesulfonamide] | < 100 nM | 1000 to 10000 nM
15 | CN1CCN(C)C(c2cccc(Nc3ncc4ccc(-c5ccc(S(C)(=O)=O)cc5)n4n3)c2)C1=O (stereo not drawn) [Example 1084, 3-{3-[7-(4-Methanesulfonyl-phenyl)-pyrrolo[2,1-f][1,2,4]triazin-2-ylamino]-phenyl}-1,4-dimethyl-piperazin-2-one] | < 100 nM | > 10000 nM
16 | CC(C)(C)NS(=O)(=O)c1cccc(-c2ccc3cnc(Nc4ccc(-c5cccnc5)cc4)nn23)c1 [Example 1085, N-tert-Butyl-3-[2-(4-pyridin-3-yl-phenylamino)-pyrrolo[2,1-f][1,2,4]triazin-7-yl]-benzenesulfonamide] | < 100 nM | > 10000 nM
17 | O=S(=O)(c1cccc(-c2ccc3cnc(Nc4ccc(-c5cccnc5)cc4)nn23)c1)N1CCCC1 [Example 1086, (4-Pyridin-3-yl-phenyl)-{7-[3-(pyrrolidine-1-sulfonyl)-phenyl]-pyrrolo[2,1-f][1,2,4]triazin-2-yl}-amine] | < 100 nM | > 10000 nM
18 | CS(=O)(=O)c1cccc(-c2ccc3cnc(Nc4ccc(-c5cccnc5)cc4)nn23)c1 [Example 1087, [7-(3-Methanesulfonyl-phenyl)-pyrrolo[2,1-f][1,2,4]triazin-2-yl]-(4-pyridin-3-yl-phenyl)-amine] | < 100 nM | 1000 to 10000 nM
19 | COc1ccc(-c2ccc3cnc(Nc4ccc(-c5cccnc5)cc4)nn23)cn1 [Example 1088, [7-(6-Methoxy-pyridin-3-yl)-pyrrolo[2,1-f][1,2,4]triazin-2-yl]-(4-pyridin-3-yl-phenyl)-amine] | < 100 nM | 1000 to 10000 nM
20 | CS(=O)(=O)c1ccc(-c2ccc3cnc(Nc4ccc(-c5cccnc5)cc4)nn23)cc1 [Example 1089, [7-(4-Methanesulfonyl-phenyl)-pyrrolo[2,1-f][1,2,4]triazin-2-yl]-(4-pyridin-3-yl-phenyl)-amine] | < 100 nM | 1000 to 10000 nM
21 | O=S(=O)(c1cccc(-c2ccc3cnc(Nc4ccc(-c5cccnc5)cc4)nn23)c1)N1CCOCC1 [Example 1090, {7-[3-(Morpholine-4-sulfonyl)-phenyl]-pyrrolo[2,1-f][1,2,4]triazin-2-yl}-(4-pyridin-3-yl-phenyl)-amine] | < 100 nM | 1000 to 10000 nM
22 | COc1ccccc1-c1ccc2cnc(Nc3ccc(-c4cccnc4)cc3)nn12 [Example 1091, [7-(2-Methoxy-phenyl)-pyrrolo[2,1-f][1,2,4]triazin-2-yl]-(4-pyridin-3-yl-phenyl)-amine] | < 100 nM | 1000 to 10000 nM
23 | CN(c1ccccc1-c1ccc2cnc(Nc3ccc(-c4cccnc4)cc3)nn12)S(C)(=O)=O [Example 1092, N-Methyl-N-{2-[2-(4-pyridin-3-yl-phenylamino)-pyrrolo[2,1-f][1,2,4]triazin-7-yl]-phenyl}-methanesulfonamide] | < 100 nM | 100 to 1000 nM
24 | COc1ccccc1-c1ccc2cnc(Nc3ccc(OCCN4CCOCC4)cc3)nn12 [Example 1101, [7-(2-Methoxy-phenyl)-pyrrolo[2,1-f][1,2,4]triazin-2-yl]-[4-(2-morpholin-4-yl-ethoxy)-phenyl]-amine] | < 100 nM | < 100 nM
25 | COc1ccc(-c2ccc3cnc(Nc4ccc(N5CCC(CO)CC5)cc4)nn23)cn1 [Example 1102, (1-{4-[7-(6-Methoxy-pyridin-3-yl)-pyrrolo[2,1-f][1,2,4]triazin-2-ylamino]-phenyl}-piperidin-4-yl)-methanol] | < 100 nM | 100 to 1000 nM
26 | COc1ccc(-c2ccc3cnc(Nc4ccc(OCCN5CCOCC5)cc4)nn23)cn1 [Example 1103, [7-(6-Methoxy-pyridin-3-yl)-pyrrolo[2,1-f][1,2,4]triazin-2-yl]-[4-(2-morpholin-4-yl-ethoxy)-phenyl]-amine] | < 100 nM | 100 to 1000 nM
27 | COc1ccc(-c2ccc3cnc(Nc4ccc(N5CCN(CCO)CC5)cc4)nn23)cn1 [Example 1104, 2-(4-{4-[7-(6-Methoxy-pyridin-3-yl)-pyrrolo[2,1-f][1,2,4]triazin-2-ylamino]-phenyl}-piperazin-1-yl)-ethanol] | < 100 nM | 100 to 1000 nM
28 | COc1ccc(-c2ccc3cnc(Nc4ccc(N5CCOCC5)cc4)nn23)cn1 [Example 1105, [7-(6-Methoxy-pyridin-3-yl)-pyrrolo[2,1-f][1,2,4]triazin-2-yl]-(4-morpholin-4-yl-phenyl)-amine] | < 100 nM | 1000 to 10000 nM
29 | COc1ccc(-c2ccc3cnc(Nc4ccc(N5CCOCC5)nc4)nn23)cn1 [Example 1106] | < 100 nM | 1000 to 10000 nM
30 | COc1ccccc1-c1c(C)c(C)c2cnc(Nc3ccc(N4CCN(C)CC4)cc3)nn12 [Example 1107] | < 100 nM | < 100 nM

Reference: patent publication US8471005B2 (Cephalon, Inc., priority 2008, dated 2013)
